Measurements reported in PubChem BioAssay AID330 (DTP/NCI, 2004).
Several values for one entry are separate records, joined by “and”; a condition that tells them apart may be missing. Equal entries are not always repeated. Toxic doses and inconclusive results are not listed. How the source made its calls: active means survival T/C of 150% or more; inactive means T/C below 125% in these data.

Test system: P388 leukemia ip, CD2F1 mice, survival T/C
Assay: NCI In Vivo Anticancer Drug Screen. Data for tumor model P388 Leukemia (intraperitoneal) in CD2F1 (CDF1) mice
Conditions: endpoint: median survival time, higher = longer survival
Outline: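 Mice carrying the transplanted tumor received test compound or vehicle. Survival was recorded in each group, and the value is the treated-group measurement divided by that of the vehicle-treated control group.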

[1] = dose: 12.5 mg/kg/injection, schedule: Q01DX009 (ip), vehicle: Klucel (hydroxypropylcellulose) (HPC)
[2] = dose: 25.0 mg/kg/injection, schedule: Q01DX009 (ip), vehicle: Klucel (hydroxypropylcellulose) (HPC)
[3] = dose: 50.0 mg/kg/injection, schedule: Q01DX009 (ip), vehicle: Klucel (hydroxypropylcellulose) (HPC)
[4] = dose: 50.0 mg/kg/injection, schedule: Q01DX005 (ip), vehicle: saline with Tween-80
[5] = dose: 50.0 mg/kg/injection, schedule: Q01DX009 (ip), vehicle: saline
[6] = dose: 100.0 mg/kg/injection, schedule: Q01DX009 (ip), vehicle: saline
[7] = dose: 200.0 mg/kg/injection, schedule: Q01DX009 (ip), vehicle: saline
[8] = dose: 25.0 mg/kg/injection, schedule: Q01DX005 (ip), vehicle: Klucel (hydroxypropylcellulose) (HPC)
[9] = dose: 50.0 mg/kg/injection, schedule: Q01DX005 (ip), vehicle: Klucel (hydroxypropylcellulose) (HPC)

Measured: T/C

N#CC1(Nc2ccccc2)CCCC1
inactive: dose: 3.13 mg/kg/injection, schedule: Q01DX009 (ip), vehicle: Klucel (hydroxypropylcellulose) (HPC) 104 % of control | dose: 6.25 mg/kg/injection, schedule: Q01DX009 (ip), vehicle: Klucel (hydroxypropylcellulose) (HPC) 104 % of control and 92 % of control and 96 % of control | [1] 100 % of control and 90 % of control and 98 % of control | [2] 100 % of control and 96 % of control | [3] 104 % of control

S=C1N(c2ccc(Br)cc2)C2=Nc3ccccc3SC(=C2N=Nc2ccc(Br)cc2)N1c1ccc(Cl)cc1
inactive: [4] 93 % of control | dose: 100.0 mg/kg/injection, schedule: Q01DX005 (ip), vehicle: saline with Tween-80 86 % of control | dose: 200.0 mg/kg/injection, schedule: Q01DX005 (ip), vehicle: saline with Tween-80 91 % of control

COc1nc(=O)n(C2OC(=O)C(C)(C)C2=O)cc1F (stereo not drawn)
inactive: dose: 11.25 mg/kg/injection, schedule: Q04DX002 (ip), vehicle: distilled water + Tween-80 100 % of control | dose: 22.5 mg/kg/injection, schedule: Q04DX002 (ip), vehicle: distilled water + Tween-80 106 % of control | dose: 45.0 mg/kg/injection, schedule: Q04DX002 (ip), vehicle: distilled water + Tween-80 100 % of control | dose: 90.0 mg/kg/injection, schedule: Q04DX002 (ip), vehicle: distilled water + Tween-80 106 % of control | dose: 180.0 mg/kg/injection, schedule: Q04DX002 (ip), vehicle: distilled water + Tween-80 96 % of control | dose: 360.0 mg/kg/injection, schedule: Q04DX002 (ip), vehicle: distilled water + Tween-80 100 % of control

COc1ccc(CS(=O)(=O)c2cnc(N3CCN(C)CC3)nc2N)cc1OC
inactive: dose: 100.0 mg/kg/injection, schedule: Q01DX001 (ip), vehicle: saline 101 % of control | dose: 200.0 mg/kg/injection, schedule: Q01DX001 (ip), vehicle: saline 98 % of control | dose: 400.0 mg/kg/injection, schedule: Q01DX001 (ip), vehicle: saline 98 % of control

NC(N)=NCCC(Cl)C(=O)O (stereo not drawn)
inactive: dose: 50.0 mg/kg/injection, schedule: Q01DX005 (ip), vehicle: saline 101 % of control | dose: 100.0 mg/kg/injection, schedule: Q01DX005 (ip), vehicle: saline 102 % of control | dose: 200.0 mg/kg/injection, schedule: Q01DX005 (ip), vehicle: saline 97 % of control

CC1(C)OCC(C2OC3OC(C)(C)OC3C2(O)/C(N)=N/O)O1 (stereo not drawn)
inactive: dose: 100.0 mg/kg/injection, schedule: Q04DX002 (ip), vehicle: saline 103 % of control | dose: 200.0 mg/kg/injection, schedule: Q04DX002 (ip), vehicle: saline 112 % of control | dose: 400.0 mg/kg/injection, schedule: Q04DX002 (ip), vehicle: saline 122 % of control

Cc1cc2c(cc1C)NC1C(=O)C(c3ccccc3Cl)OC1=N2 (stereo not drawn)
inactive: dose: 50.0 mg/kg/injection, schedule: Q01DX005 (ip), vehicle: Klucel + Tween-80 92 % of control | dose: 100.0 mg/kg/injection, schedule: Q01DX005 (ip), vehicle: Klucel + Tween-80 94 % of control | dose: 200.0 mg/kg/injection, schedule: Q01DX005 (ip), vehicle: Klucel + Tween-80 91 % of control

O[P+]1(c2ccccc2)OC(C(F)(F)F)(C(F)(F)F)C(C(F)(F)F)(C(F)(F)F)O1
inactive: [5] 108 % of control | [6] 99 % of control | [7] 107 % of control

COc1cc2c(cc1C(C)c1ccc(O)cc1)OCO2 (stereo not drawn)
inactive: dose: 50.0 mg/kg/injection, schedule: Q01DX005 (ip), vehicle: distilled water + Tween-80 100 % of control | dose: 100.0 mg/kg/injection, schedule: Q01DX005 (ip), vehicle: distilled water + Tween-80 97 % of control | dose: 200.0 mg/kg/injection, schedule: Q01DX005 (ip), vehicle: distilled water + Tween-80 96 % of control

CC(=O)Nc1ccc(S(=O)(=O)n2c(=O)oc3cc(Br)ccc32)cc1
inactive: [8] 94 % of control | [9] 87 % of control and 90 % of control | dose: 100.0 mg/kg/injection, schedule: Q01DX005 (ip), vehicle: Klucel (hydroxypropylcellulose) (HPC) 87 % of control and 90 % of control

NC(CSc1nc2ccccn2c1[N+](=O)[O-])C(=O)O (stereo not drawn)
inactive: [1] 98 % of control | [2] 100 % of control | [3] 99 % of control and 100 % of control

Nc1cc2c(cn1)[nH]c1ccccc12
inactive: dose: 12.5 mg/kg/injection, schedule: Q01DX009 (ip), vehicle: other 108 % of control | dose: 25.0 mg/kg/injection, schedule: Q01DX009 (ip), vehicle: other 101 % of control | dose: 50.0 mg/kg/injection, schedule: Q01DX009 (ip), vehicle: other 108 % of control | dose: 60.0 mg/kg/injection, schedule: Q01DX005 (ip), vehicle: saline with Tween-80 97 % of control | dose: 100.0 mg/kg/injection, schedule: Q01DX009 (ip), vehicle: other 106 % of control | dose: 120.0 mg/kg/injection, schedule: Q01DX005 (ip), vehicle: saline with Tween-80 106 % of control

CCN(CC)C(=S)Oc1cc(C)nc(SCC(=O)c2ccc(Cl)cc2)n1
inactive: [3] 108 % of control | dose: 100.0 mg/kg/injection, schedule: Q01DX009 (ip), vehicle: Klucel (hydroxypropylcellulose) (HPC) 100 % of control | dose: 200.0 mg/kg/injection, schedule: Q01DX009 (ip), vehicle: Klucel (hydroxypropylcellulose) (HPC) 103 % of control

COc1ccc2c(c1O)C13CC=NC(C2)C1C(C)(C)C(C)(C)C(=O)C3 (stereo not drawn)
inactive: dose: 12.5 mg/kg/injection, schedule: Q01DX005 (ip), vehicle: saline with Tween-80 100 % of control | dose: 25.0 mg/kg/injection, schedule: Q01DX005 (ip), vehicle: saline with Tween-80 101 % of control | [4] 100 % of control and 97 % of control

Cc1ccc(S(=O)(=O)Nn2nnnc2N)cc1
inactive: dose: 100.0 mg/kg/injection, schedule: Q01DX001 (ip), vehicle: Klucel (hydroxypropylcellulose) (HPC) 102 % of control | dose: 200.0 mg/kg/injection, schedule: Q01DX001 (ip), vehicle: Klucel (hydroxypropylcellulose) (HPC) 100 % of control | dose: 400.0 mg/kg/injection, schedule: Q01DX001 (ip), vehicle: Klucel (hydroxypropylcellulose) (HPC) 100 % of control

O=C1c2ccccc2C(=O)N1N1C(=O)c2ccccc2C1=O
inactive: dose: 100.0 mg/kg/injection, schedule: Q04DX003 (ip), vehicle: saline with Tween-80 100 % of control | dose: 200.0 mg/kg/injection, schedule: Q04DX003 (ip), vehicle: saline with Tween-80 100 % of control | dose: 400.0 mg/kg/injection, schedule: Q04DX003 (ip), vehicle: saline with Tween-80 100 % of control

COC(=O)n1sc(SC)nc1=N
inactive: dose: 12.5 mg/kg/injection, schedule: Q01DX005 (ip), vehicle: Klucel (hydroxypropylcellulose) (HPC) 88 % of control | [8] 114 % of control | [9] 100 % of control and 114 % of control

CCCCOCCOCCOC1C2CC3C1C3(OCCOCCOCCCC)C2 (stereo not drawn)
inactive: [5] 104 % of control | [6] 99 % of control | [7] 104 % of control

C=C1C(=O)OC2CC(C)C3C(OC(C)=O)CC(OC(C)=O)C3(C)CC12 (stereo not drawn)
inactive: dose: 12.5 mg/kg/injection, schedule: Q04DX002 (ip), vehicle: saline with Tween-80 99 % of control | dose: 25.0 mg/kg/injection, schedule: Q04DX002 (ip), vehicle: saline with Tween-80 106 % of control | dose: 50.0 mg/kg/injection, schedule: Q04DX002 (ip), vehicle: saline with Tween-80 103 % of control

N#CC(C(=O)C(=O)Nc1ccc(Cl)cc1)c1c(Cl)cccc1Cl (stereo not drawn)
inactive: dose: 100.0 mg/kg/injection, schedule: Q04DX002 (ip), vehicle: saline with Tween-80 105 % of control | dose: 200.0 mg/kg/injection, schedule: Q04DX002 (ip), vehicle: saline with Tween-80 108 % of control | dose: 400.0 mg/kg/injection, schedule: Q04DX002 (ip), vehicle: saline with Tween-80 97 % of control
